Measured values reported in the NIST ThermoML archive (doi:10.1016/j.jct.2017.03.006).

Test: xn = mol fraction of the nth substance listed
Details: 333.15 K, Liquid, Vibrating tube method

Cc1ccc(C)c(C)c1 [1,2,4-trimethylbenzene] + CCC(C)O
mass density [kg/m3]
Details | x2 = 0 | x2 = 0.1 | x2 = 0.1989 | x2 = 0.3011 | x2 = 0.4002 | x2 = 0.5001 | x2 = 0.5997 | x2 = 0.6999 | x2 = 0.7999 | x2 = 0.9
40000 kPa | – | – | – | – | – | – | – | – | 819.7 | 812.1
50000 kPa | 877.4 | 871.2 | 865.3 | 859.2 | 853.2 | 847.6 | 840.5 | 833.4 | 826.3 | 818.7
60000 kPa | 883 | 876.9 | 871.1 | 865.1 | 859.1 | 853.7 | 846.6 | 839.5 | 832.5 | 824.9
70000 kPa | 888.2 | 882.5 | 876.6 | 870.6 | 864.8 | 859.3 | 852.3 | 845.3 | 838.4 | 830.7
80000 kPa | 893.2 | 887.6 | 881.9 | 875.9 | 870.1 | 864.7 | 857.8 | 850.8 | 843.7 | 836.2
90000 kPa | 898 | 892.5 | 886.9 | 881 | 875.2 | 869.8 | 862.9 | 856 | 849 | 841.4
100000 kPa | 902.5 | 897.2 | 891.7 | 885.8 | 880 | 874.7 | 867.9 | 860.9 | 853.9 | 846.4
110000 kPa | 906.9 | 901.8 | 896.2 | 890.5 | 884.7 | 879.4 | 872.6 | 865.7 | 858.7 | 851.2
120000 kPa | 911.1 | 906.1 | 900.7 | 894.8 | 889.1 | 883.9 | 877.1 | 870.2 | 863.2 | 855.7
130000 kPa | 915.1 | 910.3 | 904.9 | 899.1 | 893.4 | 888.2 | 881.5 | 874.5 | 867.5 | 860.1
140000 kPa | 919 | 914.3 | 909.1 | 903 | 897.5 | 892.2 | 885.9 | 878.5 | 871.5 | 864
